The text below walks through data of patent US20250145665A1, “MACROCYCLIC PEPTIDES USEFUL AS MODULATORS OF TNF ALPHA” (Bristol-Myers Squibb Company, priority 2023, published 2025).

Starred links: 1 amine or outer side, 2 acyl side, 3 side chain; linkers in the order of their positions; H or OH if unused. Positions of bridges follow the written chain, without caps; N, C: chain ends. Non-standard residues stand in square brackets, D forms with d. Residues, ends and D or L forms follow the SMILES beside them. *: point of attachment. Bip(4'-NHCO-C6H4-3-CH2COOH) = N[C@@H](Cc1ccc(-c2ccc(NC(=O)c3cccc(CC(=O)O)c3)cc2)cc1)C(=O)O; Bip(4'-NHCO-C6H4-4-CH2COOH) = N[C@@H](Cc1ccc(-c2ccc(NC(=O)c3ccc(CC(=O)O)cc3)cc2)cc1)C(=O)O; X5 = Cn1nc(C(=O)Nc2ccc(-c3ccc(C[C@H](N[*:1])C(=O)[*:2])cc3)cc2)c2ccccc21; dArg(ω-(2S)-2,3-diOHpropyl) = N=C(NCCC[C@@H](N)C(=O)O)NC[C@H](O)CO; Bip(4'-NH) = O=C([C@H](Cc1ccc(-c2ccc(N[*:3])cc2)cc1)N[*:1])[*:2]; dArg(ω-Bn(3-CH2OH)) = N=C(NCCC[C@@H](N)C(=O)O)NCc1cccc(CO)c1; Indazole3carbonyl(1-CH2COOH) = O=C(O)Cn1nc(C(=O)*)c2ccccc21; X54 = N=C(NCCC[C@@H](N[*:1])C(=O)[*:2])NCc1cccc(-n2ccnc2)c1; Bip(4'-COOH) = N[C@@H](Cc1ccc(-c2ccc(C(=O)O)cc2)cc1)C(=O)O; X66 = N=C(NCCC[C@@H](N[*:1])C(=O)[*:2])NCc1ccc(F)c(F)c1; X7 = N=C(NCCC[C@@H](N[*:1])C(=O)[*:2])NCc1ccc2occc2c1; Ala(morpholin-4-yl) = N[C@@H](CN1CCOCC1)C(=O)O; Bip = N[C@@H](Cc1ccc(-c2ccccc2)cc1)C(=O)O; Cha = N[C@@H](CC1CCCCC1)C(=O)O; Tle = CC(C)(C)[C@H](N)C(=O)O; Sar = CNCC(=O)O

Broadly, the IC50 is the point on the concentration scale where inhibition reaches its midpoint.

One experiment deals with TNFα (Homo sapiens, UniProt P01375). In words: TNF-Induced HEK-Blue Assay.
TNFα, sequence (P01375 77-233 limits assumed): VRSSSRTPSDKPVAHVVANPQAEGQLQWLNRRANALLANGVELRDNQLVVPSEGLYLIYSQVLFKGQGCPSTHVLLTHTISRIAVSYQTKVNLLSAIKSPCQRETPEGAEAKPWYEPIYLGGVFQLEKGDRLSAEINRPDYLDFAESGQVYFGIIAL
Conditions: not given
The experiment is classed as cell-based.
As to `CC(C)C[C@@H]1NC(=O)[C@H](CCCNC(=N)N)NC(=O)[C@H](C(C)C)NC(=O)[C@@H]2CCCN2C(=O)[C@H](C(C)C)NC(=O)[C@@H](CCCNC(=N)NC[C@H](O)CO)NC(=O)[C@H](CC(=O)O)NC(=O)[C@@H]2CCCN2C(=O)CN(C)C(=O)[C@H](Cc2ccc(-c3ccc(NC(=O)c4nn(CC(=O)O)c5ccccc45)cc3)cc2)NC(=O)[C@H](Cc2ccc(-c3ccccc3)cc2)NC(=O)[C@H](CN2CCOCC2)NC(=O)CSC[C@@H](C(=O)NCC(N)=O)NC1=O` [Example 475] ({CH2CO}-[Ala(morpholin-4-yl)][Bip][Bip(4'-NH)](Indazole3carbonyl(1-CH2COOH))[Sar]PD[dArg(ω-(2S)-2,3-diOHpropyl)]VPVRLCG-NH2; thioether N-13), the IC50 was under 50 nM.
On the same count and under the same terms, the figure for `CC[C@H](C)[C@@H]1NC(=O)[C@@H](CCCNC(=N)NCc2cccc(CO)c2)NC(=O)[C@H](CC(=O)O)NC(=O)[C@H](Cc2cnc[nH]2)NC(=O)CN(C)C(=O)[C@H](Cc2ccc(-c3ccc(NC(=O)c4nn(CC(=O)O)c5ccccc45)cc3)cc2)NC(=O)[C@H](Cc2ccc(-c3ccccc3)cc2)NC(=O)[C@H](CC2CCCCC2)NC(=O)CSC[C@@H](C(=O)NCC(N)=O)NC(=O)[C@H](CC(C)C)NC(=O)[C@H](Cc2cnc[nH]2)NC(=O)[C@H](C(C)C)NC(=O)[C@@H]2CCCN2C1=O` [Example 477] ({CH2CO}-[Cha][Bip][Bip(4'-NH)](Indazole3carbonyl(1-CH2COOH))[Sar]HD[dArg(ω-Bn(3-CH2OH))]IPVHLCG-NH2; thioether N-13) is under 50 nM.
Still for that read-out and setting: the result for `CC[C@H](C)[C@@H]1NC(=O)[C@@H](CCCNC(=N)NCc2ccc3occc3c2)NC(=O)[C@H](CC(=O)O)NC(=O)[C@H](Cc2cnc[nH]2)NC(=O)CN(C)C(=O)[C@H](Cc2ccc(-c3ccc(NC(=O)c4nn(CC(=O)O)c5ccccc45)cc3)cc2)NC(=O)[C@H](Cc2ccc(-c3ccccc3)cc2)NC(=O)[C@H](CC2CCCCC2)NC(=O)CSC[C@@H](C(=O)NCC(N)=O)NC(=O)[C@H](CC(C)C)NC(=O)[C@H](Cc2cnc[nH]2)NC(=O)[C@H](C(C)C)NC(=O)[C@@H]2CCCN2C1=O` [Example 479] ({CH2CO}-[Cha][Bip][Bip(4'-NH)](Indazole3carbonyl(1-CH2COOH))[Sar]HD[X7]IPVHLCG-NH2; thioether N-13) reads under 50 nM.

Staying with this experiment, now noted: HEK-Blue-CD40L cells, NF-kB-driven secreted alkaline phosphatase reporter; TNFα 0.5 ng/ml; 18 h; read-out: TNF induced HEK-Blue assay IC50 value.
As for `CC(C)C[C@@H]1NC(=O)[C@H](CCCNC(=N)N)NC(=O)[C@H](C(C)C)NC(=O)[C@@H]2CCCN2C(=O)[C@H](C(C)C)NC(=O)[C@@H](CCCNC(=N)NCc2ccc(F)c(F)c2)NC(=O)[C@H](CC(=O)O)NC(=O)[C@@H]2CCCN2C(=O)CN(C)C(=O)[C@H](Cc2ccc(-c3ccc(NC(=O)c4nn(C)c5ccccc45)cc3)cc2)NC(=O)[C@H](Cc2ccc(-c3ccccc3)cc2)NC(=O)[C@H](CN2CCOCC2)NC(=O)CSC[C@@H](C(=O)NCC(N)=O)NC1=O` [Example 473] ({CH2CO}-[Ala(morpholin-4-yl)][Bip][X5][Sar]PD[X66]VPVRLCG-NH2; thioether N-13), the IC50 is under 50 nM.
The same measure, in the same setting: the figure for `CC(C)C[C@@H]1NC(=O)[C@H](CCCNC(=N)N)NC(=O)[C@H](C(C)C)NC(=O)[C@@H]2CCCN2C(=O)[C@H](C(C)C)NC(=O)[C@@H](CCCNC(=N)NCc2cccc(-n3ccnc3)c2)NC(=O)[C@H](CC(=O)O)NC(=O)[C@@H]2CCCN2C(=O)CN(C)C(=O)[C@H](Cc2ccc(-c3ccc(NC(=O)c4nn(C)c5ccccc45)cc3)cc2)NC(=O)[C@H](Cc2ccc(-c3ccccc3)cc2)NC(=O)[C@H](CN2CCOCC2)NC(=O)CSC[C@@H](C(=O)NCC(N)=O)NC1=O` [Example 474] ({CH2CO}-[Ala(morpholin-4-yl)][Bip][X5][Sar]PD[X54]VPVRLCG-NH2; thioether N-13) is 50 to 200 nM; for `CC(C)C[C@@H]1NC(=O)[C@H](CCCNC(=N)N)NC(=O)[C@H](C(C)C)NC(=O)[C@@H]2CCCN2C(=O)[C@H](C(C)C)NC(=O)[C@@H](CCCNC(=N)NC[C@H](O)CO)NC(=O)[C@H](CC(=O)O)NC(=O)[C@@H]2CCCN2C(=O)CN(C)C(=O)[C@H](Cc2ccc(-c3ccc(NC(=O)c4nn(C)c5ccccc45)cc3)cc2)NC(=O)[C@H](Cc2ccc(-c3ccccc3)cc2)NC(=O)[C@H](CN2CCOCC2)NC(=O)CSC[C@@H](C(=O)NCC(N)=O)NC1=O` [Example 476] ({CH2CO}-[Ala(morpholin-4-yl)][Bip][X5][Sar]PD[dArg(ω-(2S)-2,3-diOHpropyl)]VPVRLCG-NH2; thioether N-13) it is under 50 nM; for `CC[C@H](C)[C@@H]1NC(=O)[C@@H](CCCNC(=N)NCc2cccc(CO)c2)NC(=O)[C@H](CC(=O)O)NC(=O)[C@H](Cc2cnc[nH]2)NC(=O)CN(C)C(=O)[C@H](Cc2ccc(-c3ccc(NC(=O)c4nn(C)c5ccccc45)cc3)cc2)NC(=O)[C@H](Cc2ccc(-c3ccccc3)cc2)NC(=O)[C@H](CC2CCCCC2)NC(=O)CSC[C@@H](C(=O)NCC(N)=O)NC(=O)[C@H](CC(C)C)NC(=O)[C@H](Cc2cnc[nH]2)NC(=O)[C@H](C(C)C)NC(=O)[C@@H]2CCCN2C1=O` [Example 478] ({CH2CO}-[Cha][Bip][X5][Sar]HD[dArg(ω-Bn(3-CH2OH))]IPVHLCG-NH2; thioether N-13) it is 50 to 200 nM.
The same measure, in the same setting: the result for `CC[C@H](C)[C@@H]1NC(=O)[C@@H](CCCNC(=N)N)NC(=O)[C@H](CC(=O)O)NC(=O)[C@H](Cc2cnc[nH]2)NC(=O)CN(C)C(=O)[C@H](Cc2ccc(-c3ccc(NC(=O)c4cccc(CC(=O)O)c4)cc3)cc2)NC(=O)[C@H](Cc2ccc(-c3ccccc3)cc2)NC(=O)[C@H](CN2CCOCC2)NC(=O)CSC[C@@H](C(=O)NCC(N)=O)NC(=O)[C@H](CC(C)C)NC(=O)[C@H](Cc2cnc[nH]2)NC(=O)[C@H](C(C)C)NC(=O)[C@@H]2CCCN2C1=O` [Example 481] ({CH2CO}-[Ala(morpholin-4-yl)][Bip][Bip(4'-NHCO-C6H4-3-CH2COOH)][Sar]HD[dR]IPVHLCG-NH2; thioether N-13) reads under 50 nM; that for `CC[C@H](C)[C@@H]1NC(=O)[C@@H](CCCNC(=N)N)NC(=O)[C@H](CC(=O)O)NC(=O)[C@H](Cc2cnc[nH]2)NC(=O)CN(C)C(=O)[C@H](Cc2ccc(-c3ccc(NC(=O)c4cccc(CC(=O)O)c4)cc3)cc2)NC(=O)[C@H](Cc2ccc(-c3ccc(C(=O)O)cc3)cc2)NC(=O)[C@H](C(C)(C)C)NC(=O)CSC[C@@H](C(=O)NCC(N)=O)NC(=O)[C@H](CC(C)C)NC(=O)[C@H](Cc2cnc[nH]2)NC(=O)[C@H](C(C)C)NC(=O)[C@@H]2CCCN2C1=O` [Example 482] ({CH2CO}-[Tle][Bip(4'-COOH)][Bip(4'-NHCO-C6H4-3-CH2COOH)][Sar]HD[dR]IPVHLCG-NH2; thioether N-13), under 50 nM.
The same measure, in the same setting: the result for `CC[C@H](C)[C@@H]1NC(=O)[C@@H](CCCNC(=N)N)NC(=O)[C@H](CC(=O)O)NC(=O)[C@H](Cc2cnc[nH]2)NC(=O)CN(C)C(=O)[C@H](Cc2ccc(-c3ccc(NC(=O)c4ccc(CC(=O)O)cc4)cc3)cc2)NC(=O)[C@H](Cc2ccc(-c3ccccc3)cc2)NC(=O)[C@H](CN2CCOCC2)NC(=O)CSC[C@@H](C(=O)NCC(N)=O)NC(=O)[C@H](CC(C)C)NC(=O)[C@H](Cc2cnc[nH]2)NC(=O)[C@H](C(C)C)NC(=O)[C@@H]2CCCN2C1=O` [Example 484] ({CH2CO}-[Ala(morpholin-4-yl)][Bip][Bip(4'-NHCO-C6H4-4-CH2COOH)][Sar]HD[dR]IPVHLCG-NH2; thioether N-13) reads under 50 nM.
